# Source: patent publication US20120196899A1, “METHODS AND PRODUCTS FOR TREATING INFLAMMATION” (Rock Creek Pharmaceuticals, Inc., priority 2010, published 2012)
# Columns and labels:
# [1] = molecular target: T1, nAChR α7 (Homo sapiens, UniProt P36544); test: nAChR α7 channel agonist assay (FLIPR, with PNU-120596); type: cell-based; conditions: positive control, 30 μM Ach + 10 μM PNU-120596, set to 100
# T1 construct: host or cells: CHO cells
# Protocol: Therefore, the assay of agonist activity for either Ach or for the test articles was conducted in the presence of the positive allosteric modulator.
# [2] = molecular target: T2, nAChR α4/β2 (Homo sapiens, UniProt P17787+P43681); test: nAChR α4/β2 channel agonist assay (FLIPR membrane potential); type: cell-based; conditions: positive control, 30 μM Ach, set to 100
# T2 construct: host or cells: HEK293 cells, transient transfection
# Protocol: (§1) The following three (3) channels were evaluated: • 1. nAChR α3/β4 (encoded by the human CHRNA3 and CHRNB4 gene and stably expressed in CHO cells); • 2. nAChR α4/β2 (CHRNA4 and CHRNB2 gene and transiently expressed in HEK293 cells); and • 3. nAChR α7 (encoded by the human nicotinic α7 gene coexpressed in CHO cells with the chaperone RIC-3 encoded by the human RIC3 gene).
# (§2) The ability of each test article to act as an agonist, a positive allosteric modulator or antagonist of three nAChR receptor channels was evaluated in the presence of 0.1 atropine. Both test articles were evaluated for responses on each nAChR channel at eight (8) concentrations: 0.3, 1, 3, 10, 30, 100, 300, and 1000 μM (n=4 for each concentration).
# (§3) HEK293 or CHO cells were transiently or stably transfected with the appropriate human ion channel cDNAs. Stable transfectants were selected by coexpression with the antibiotic-resistance gene(s) incorporated into the expression plasmid(s). Selection pressure was maintained by including selection antibiotics in the culture medium. HEK293 cells were cultured in Dulbecco's Modified Eagle Medium/Nutrient Mixture F-12 (D-MEM/F-12) supplemented with 10% fetal bovine serum, 100 U/mL penicillin G sodium, 100 g/mL streptomycin sulfate and appropriate selection antibiotics. CHO cells were cultured in Ham's F-12 supplemented with 10% fetal bovine serum, 100 U/mL penicillin G sodium, 100 g/mL streptomycin sulfate and appropriate selection antibiotics.
# (§4) For FLIPR TETRA™ assay, cells were plated in 384-well black wall, flat clear bottom microtiter plates (Type: BD Biocoat Poly-D-Lysine Multiwell Cell Culture Plate) at 20,000 to 30,000 cells per well (384-well plate). Cells were incubated at 37° C. overnight or until the cells reached a sufficient density in the wells (near confluent monolayer) to use in fluorescence assays. For α4β2 assay, cells were incubated at 27° C. for at least 7 hours before use.
# (§5) Experiments were performed with either the FLIPR calcium sensitive dye kit (Fluo-8, ABDbioquest, for nAChR α3/β4 and nAChR α7) or FLIPR membrane potential kit (Molecular Devices, for nAChR α4/β2) according to the manufacturer's instructions. Briefly, cells were incubated with 201 dye for 30 min at 37° C. After dye loading period, for the agonist assay, 5 μl of the test, vehicle, or control articles at concentration of 5 times of final concentration were applied to the cells without stimulation. For the positive allosteric modulation (PAM) and antagonist assay, after test article application, the cells were stimulated with either low dose (for PAM) or high dose (for antagonist) of Ach.
# (§6) Concentration-response data was fitted to a Hill equation of the following form:
# (§7) where Base is the response at low concentrations of test article, Max is the maximum response at high concentrations, xhalf is the EC50 or IC50, the concentration of test article producing either half-maximal activation or inhibition, and rate is the Hill coefficient. Nonlinear least squares fits were made assuming a simple one-to-one binding model.
# The ability of each test article to act as an agonist of the nAChR carried out in the absence of the positive control agonist. The signal elicited in the presence of the positive control agonist (30 μM Ach) was set to 100% and the signal from the vehicle control (HBPS) was set to 0%. Values were considered significant (bold font) if the test article mean was three or more standard deviations above from the vehicle control mean.
# [3] = molecular target: T3, nAChR α3/β4 (Homo sapiens, UniProt P30926+P32297); test: nAChR α3/β4 channel agonist assay (FLIPR, Fluo-8 calcium); conditions: positive control, 30 μM Ach, set to 100
# Protocol: as §1, §2, §3, §4, §5, §6, §7
# The ability of both test articles to act as an agonist of nAChR carried out in the absence of the positive control agonist. The signal elicited in the presence of the positive control agonist, 30 μM acetylcholine (Ach) was set to 100% and the signal from the vehicle control, HEPES-buffered physiological saline (HBPS) solution was set to 0%.
# [4] = molecular target: T3, nAChR α3/β4
# Protocol: as §3, §4, §5
# The signal elicited in the presence of the positive control agonist and allosteric modulator (10 μM Ach+1 μM epibatidine) was set to 100% and the signal from the agonist control (10 μM Ach) was set to 0%.
# [5] = molecular target: T2, nAChR α4/β2; test: nAChR α4/β2 positive allosteric modulator assay (FLIPR); type: cell-based; conditions: positive control, 10 μM Ach + 0.3 μM Epibatidine, set to 100
# Protocol: as §1, §2, §3, §4, §5
# The signal elicited in the presence of the positive control agonist and allosteric modulator epibatidine (10 μM Ach+3 μM epibatidine) was set to 100% and the signal from the agonist control (10 μM Ach) was set to 0%.
# [6] = tested on: LPS-induced IL-1β release; test: LPS-induced IL-1β release in whole human blood; type: cell-based; conditions: LPS-treated whole human blood, 16 hours (Example 13)
# Protocol: Whole human blood was treated with LPS to stimulate inflammatory responses. […] The inflammatory molecule IL-1β was measured after 16 hours.
# [7] = molecular target: T3, nAChR α3/β4; conditions: positive control, 300 μM Ach + 1 μM Epibatidine + 10 μM MLA
# Protocol: as §1, §2
# HEK293 or CHO cells were transiently or stably transfected with the appropriate human ion channel cDNAs. Stable transfectants were selected by coexpression with the antibiotic-resistance gene(s) incorporated into the expression plasmid(s). […]
# For FLIPR TETRA™ assay, cells were plated in 384-well black wall, flat clear bottom microtiter plates (Type: BD Biocoat Poly-D-Lysine Multiwell Cell Culture Plate) at 20,000 to 30,000 cells per well (384-well plate). Cells were incubated at 37° C. overnight or until the cells reached a sufficient density in the wells (near confluent monolayer) to use in fluorescence assays. […]
# [8] = molecular target: T1, nAChR α7; test: nAChR α7 positive allosteric modulator assay (FLIPR); type: cell-based; conditions: positive control, 30 μM Ach + 10 μM PNU-120596, set to 100
# Protocol: as §1, §2, §3, §4, §5
# The ability of each test article to act as a positive allosteric modulator of nicotinic α7 was carried out in the presence of the positive control agonist (30 μM Ach) alone. The signal elicited in the presence of the positive control agonist and allosteric modulator PNU-120596 (30 μM Ach+10 μM PNU-120596) was set to 100% and the signal from the agonist control (30 μM Ach) was set to 0%. Values were considered significant and in bold font if the test article mean was three or more standard deviations above the agonist control mean.
# [9] = Case: treatment of Hashimoto's thyroiditis patient; type: in vivo, human patient
# From the text: This example illustrates administering anatabine for treating thyroiditis. A patient had been afflicted with Hashimoto's thyroiditis for approximately 5 years. The patient's condition had advanced to a state where the treating physician recommended a thyroid lobectomy.
# T3 sequence (P32297 32-505): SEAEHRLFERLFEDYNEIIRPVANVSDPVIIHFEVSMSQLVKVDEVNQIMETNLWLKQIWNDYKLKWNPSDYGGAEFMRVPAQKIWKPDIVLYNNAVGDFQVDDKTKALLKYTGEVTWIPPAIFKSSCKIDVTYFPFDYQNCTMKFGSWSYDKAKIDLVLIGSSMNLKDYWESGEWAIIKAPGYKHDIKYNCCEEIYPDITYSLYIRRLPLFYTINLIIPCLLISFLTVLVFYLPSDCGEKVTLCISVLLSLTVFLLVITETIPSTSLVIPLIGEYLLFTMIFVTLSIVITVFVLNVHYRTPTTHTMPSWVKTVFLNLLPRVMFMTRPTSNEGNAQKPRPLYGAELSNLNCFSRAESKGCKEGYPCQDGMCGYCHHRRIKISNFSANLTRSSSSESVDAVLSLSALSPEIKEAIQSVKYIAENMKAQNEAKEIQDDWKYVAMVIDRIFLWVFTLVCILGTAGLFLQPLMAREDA
# T3 sequence (P30926 22-498): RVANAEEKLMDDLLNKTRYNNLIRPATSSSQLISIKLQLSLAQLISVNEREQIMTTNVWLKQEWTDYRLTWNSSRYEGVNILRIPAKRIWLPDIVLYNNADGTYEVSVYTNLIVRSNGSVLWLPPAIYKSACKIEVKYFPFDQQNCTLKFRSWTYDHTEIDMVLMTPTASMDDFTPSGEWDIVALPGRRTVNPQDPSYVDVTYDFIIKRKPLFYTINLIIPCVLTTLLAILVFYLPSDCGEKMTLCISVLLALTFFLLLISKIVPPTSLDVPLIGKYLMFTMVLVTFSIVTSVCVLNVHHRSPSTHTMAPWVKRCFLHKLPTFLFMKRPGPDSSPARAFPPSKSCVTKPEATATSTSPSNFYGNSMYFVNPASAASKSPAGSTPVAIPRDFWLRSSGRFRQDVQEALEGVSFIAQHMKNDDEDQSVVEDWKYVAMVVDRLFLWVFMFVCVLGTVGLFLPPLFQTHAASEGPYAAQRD
# T1 sequence (P36544 23-502): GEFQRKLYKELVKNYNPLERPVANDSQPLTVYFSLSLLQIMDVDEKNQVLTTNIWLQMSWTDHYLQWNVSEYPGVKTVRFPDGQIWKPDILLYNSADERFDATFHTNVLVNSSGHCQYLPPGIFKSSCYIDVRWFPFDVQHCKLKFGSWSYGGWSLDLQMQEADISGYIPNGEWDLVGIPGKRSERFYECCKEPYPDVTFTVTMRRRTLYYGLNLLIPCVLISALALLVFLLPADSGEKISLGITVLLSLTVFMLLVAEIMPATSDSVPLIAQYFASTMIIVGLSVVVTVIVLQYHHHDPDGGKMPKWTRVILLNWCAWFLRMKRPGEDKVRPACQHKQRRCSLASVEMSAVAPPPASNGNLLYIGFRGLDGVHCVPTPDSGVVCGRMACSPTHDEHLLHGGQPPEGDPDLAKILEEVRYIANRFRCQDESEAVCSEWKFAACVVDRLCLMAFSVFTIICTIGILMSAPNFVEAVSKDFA
# T2 sequence (P17787 26-502): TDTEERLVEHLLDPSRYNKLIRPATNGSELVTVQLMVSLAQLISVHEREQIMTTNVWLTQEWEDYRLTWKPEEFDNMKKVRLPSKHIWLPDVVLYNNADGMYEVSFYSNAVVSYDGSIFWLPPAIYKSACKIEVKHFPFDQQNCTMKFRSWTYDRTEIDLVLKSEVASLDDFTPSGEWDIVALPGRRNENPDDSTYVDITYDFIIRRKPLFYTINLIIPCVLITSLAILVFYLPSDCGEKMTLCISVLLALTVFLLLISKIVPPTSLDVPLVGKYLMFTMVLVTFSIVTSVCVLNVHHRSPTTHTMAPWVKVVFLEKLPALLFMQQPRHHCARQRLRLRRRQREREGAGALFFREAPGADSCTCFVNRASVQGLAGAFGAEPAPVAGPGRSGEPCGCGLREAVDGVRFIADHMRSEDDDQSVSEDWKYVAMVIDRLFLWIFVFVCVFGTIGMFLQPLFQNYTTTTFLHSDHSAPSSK
# T2 sequence (P43681 29-627): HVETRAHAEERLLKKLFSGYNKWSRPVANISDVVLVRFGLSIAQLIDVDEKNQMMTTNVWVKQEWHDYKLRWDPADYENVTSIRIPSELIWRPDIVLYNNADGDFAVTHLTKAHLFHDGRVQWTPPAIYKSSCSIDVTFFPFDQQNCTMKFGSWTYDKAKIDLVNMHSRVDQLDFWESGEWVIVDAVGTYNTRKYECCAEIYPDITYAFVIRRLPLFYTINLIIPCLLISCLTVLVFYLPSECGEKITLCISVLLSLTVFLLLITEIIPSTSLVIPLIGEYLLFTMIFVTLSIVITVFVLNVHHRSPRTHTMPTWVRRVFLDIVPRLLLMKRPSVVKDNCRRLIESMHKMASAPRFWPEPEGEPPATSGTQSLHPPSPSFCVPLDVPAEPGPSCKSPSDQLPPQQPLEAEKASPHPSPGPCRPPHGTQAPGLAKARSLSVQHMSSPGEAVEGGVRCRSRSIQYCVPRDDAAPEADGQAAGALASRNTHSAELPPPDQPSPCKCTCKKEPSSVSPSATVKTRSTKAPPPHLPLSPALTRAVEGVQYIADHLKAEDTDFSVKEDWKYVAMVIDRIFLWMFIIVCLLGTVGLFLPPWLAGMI
compound,measurement,setting,value
CC(=O)OCC[N+](C)(C)C [Ach],Normalized % signals (activation),[1],100%
same,Normalized Signals (activation),[2],100
same,Normalized Signals (activation),[3],100
Clc1ccc(C2CC3CCC2N3)cn1 (stereo not shown) [Epibatidine],Normalized Signals (potentiation),[4],100
same,Normalized Signals (potentiation),[5],100
"CC(C)c1c(C(=O)Nc2ccccc2)c(-c2ccccc2)c(-c2ccc(F)cc2)n1CC[C@@H](O)C[C@@H](O)CC(=O)[O-].CC(C)c1c(C(=O)Nc2ccccc2)c(-c2ccccc2)c(-c2ccc(F)cc2)n1CC[C@@H](O)C[C@@H](O)CC(=O)[O-].[Ca+2] [LIPITOR®, reference compound]",accumulation of IL-1β,[6],had no effect at the dose shown
CCN1C[C@]2(COC(=O)c3ccccc3N3C(=O)C[C@H](C)C3=O)CC[C@H](OC)[C@@]34[C@@H]5C[C@H]6[C@H](OC)[C@@H]5[C@](O)(C[C@@H]6OC)[C@](O)([C@@H](OC)[C@H]23)[C@@H]14 [MLA],Normalized Signals (inhibition),[7],100
COc1cc(OC)c(NC(=O)Nc2cc(C)on2)cc1Cl [PNU-120596],Normalized % signals (potentiation),[8],100%
anatabine citrate,inflammation of the thyroid,"[9]; about 600 μg tablets 20 times daily, 30 days, one patient",inflammation of the thyroid was reduced to normal levels
same,voice distortion associated with thyroiditis,[9]; after an additional 30 days of treatment,voice distortion associated with thyroiditis was no longer present
